Measurements as given in patent US4294843A, “Anti-protozoal oxadiazole derivatives” (Burroughs Wellcome Co., priority 1978, dated 1981).

Assays:
[1] = LD50 in female rats, oral by gavage; settings: rat, in vivo, 10% w/v suspension in corn oil
Description: 1. The LD50 of the compound of Example 3, both as the free base and the hydrochloride salt was determined in female rats by standard techniques the compound being administered as a 10% w/v suspension in corn oil orally by gavage.

LD50 in mice, oral = settings: mouse, in vivo, suspension of 0.25% Celacol
Description: 2. The LD50 of the compound of Example 3 was determined in mice by standard techniques, the compound being administered orally in a suspension of 0.25% Celacol.

Nc1ccccc1SCc1ncon1 [Example 3, 3-(2-Aminophenylthiomethyl)-1,2,4-oxadiazole]
LD50 [1]: 79.4 mg/kg
LD50 (LD50 in mice, oral): ~45 mg/kg
